Values joined by “and” are separate entries in the source; they are usually repeats but may differ in a detail not shown here. Equal values may be shown once. Active and inactive are the calls of the source.
What was measured:
[1] = OVCAR8 cell viability loss – plate reader, dry powder samples, PAX8 project, dose response (AID 743197); type: functional, cell-based; details: OVCAR-8
[2] = target: Paired box protein Pax-8 (Homo sapiens, UniProt Q06710); experiment: PAX8 transcriptional activity inhibition in RMG-I – RMG-I cells, luciferase, cherry-pick, dose response (AID 687027); type: functional, cell-based;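 further: luciferase reporter driven by Pax8 target thyroperoxidase promoter measured by SteadyGlo luminescence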
Paired box protein Pax-8, sequence (Q06710 whole entry): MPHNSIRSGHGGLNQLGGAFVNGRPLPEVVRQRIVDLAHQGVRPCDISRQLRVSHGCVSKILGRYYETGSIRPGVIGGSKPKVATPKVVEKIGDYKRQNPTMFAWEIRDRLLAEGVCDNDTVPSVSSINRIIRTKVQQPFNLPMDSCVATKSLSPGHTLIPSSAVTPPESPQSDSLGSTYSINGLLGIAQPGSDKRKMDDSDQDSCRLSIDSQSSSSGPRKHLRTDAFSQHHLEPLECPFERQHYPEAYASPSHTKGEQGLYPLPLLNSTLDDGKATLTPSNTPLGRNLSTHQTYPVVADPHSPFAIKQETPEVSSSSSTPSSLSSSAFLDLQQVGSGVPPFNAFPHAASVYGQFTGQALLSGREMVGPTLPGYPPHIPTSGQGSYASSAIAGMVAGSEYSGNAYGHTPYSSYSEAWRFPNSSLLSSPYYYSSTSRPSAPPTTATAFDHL

[3] = OVCAR-3 cell viability loss – plate reader, dry powder samples, PAX8 inhibitor project, dose response (AID 743044); type: functional, cell-based
[4] = cells; type: functional, cell-based
[5] = cells; type: functional, cell-based; remark: listed apart in the source
[6] = intracellular Trypanosoma cruzi inhibitors in host cells – cell-based, plate reader, cherry-pick samples, set 3, dose response (AID 651818); type: functional;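 further: compounds incubated with infected cells for about four days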
[7] = target: FAD-linked sulfhydryl oxidase ALR (Homo sapiens, UniProt P55789); experiment: ALR-catalysed DTT oxidation blockers – biochemical, H2O2 detection, luminescence, cherry-pick, dose response (AID 493248)
FAD-linked sulfhydryl oxidase ALR, sequence (P55789 whole entry): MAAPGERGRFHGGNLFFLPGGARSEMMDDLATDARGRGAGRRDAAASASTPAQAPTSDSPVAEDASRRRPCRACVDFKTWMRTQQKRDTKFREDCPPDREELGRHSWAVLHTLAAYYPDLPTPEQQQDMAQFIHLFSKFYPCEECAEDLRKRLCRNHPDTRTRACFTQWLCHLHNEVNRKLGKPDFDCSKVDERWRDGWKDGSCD

[8] = target: Large T antigen (Simian virus 40, UniProt P03070); type: functional, Betapolyomavirus macacae;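 further: Confirmatory-stage PubChem screen for compounds that inhibit SV40 T antigen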
Large T antigen, sequence (P03070 whole entry): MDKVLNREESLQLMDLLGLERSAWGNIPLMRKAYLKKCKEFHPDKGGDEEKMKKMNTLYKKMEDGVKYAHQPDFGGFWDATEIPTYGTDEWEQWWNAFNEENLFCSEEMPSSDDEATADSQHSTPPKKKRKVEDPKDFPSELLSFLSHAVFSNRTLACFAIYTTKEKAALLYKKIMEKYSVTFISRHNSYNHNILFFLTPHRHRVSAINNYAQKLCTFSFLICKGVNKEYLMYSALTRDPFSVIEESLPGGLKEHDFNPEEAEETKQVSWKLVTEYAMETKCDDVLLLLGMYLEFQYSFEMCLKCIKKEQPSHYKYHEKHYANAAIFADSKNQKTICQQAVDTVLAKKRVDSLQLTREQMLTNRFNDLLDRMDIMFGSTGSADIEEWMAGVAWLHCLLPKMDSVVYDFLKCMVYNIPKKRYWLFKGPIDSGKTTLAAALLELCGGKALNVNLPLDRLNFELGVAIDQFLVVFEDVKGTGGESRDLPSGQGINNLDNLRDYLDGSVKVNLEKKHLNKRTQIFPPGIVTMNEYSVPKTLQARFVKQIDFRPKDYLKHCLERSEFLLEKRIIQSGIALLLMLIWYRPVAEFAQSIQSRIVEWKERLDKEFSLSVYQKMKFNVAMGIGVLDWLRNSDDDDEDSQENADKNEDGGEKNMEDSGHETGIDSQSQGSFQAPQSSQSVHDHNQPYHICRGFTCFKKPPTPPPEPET

[9] = target: T1, Leucine aminopeptidase (Plasmodium falciparum 3D7, UniProt Q8IL11); experiment: P. falciparum M17LAP inhibitors, primary screen, biochemical, fluorogenic H-Leu-NHMec substrate, 1536-well (AID 1619); type: functional
T1 sequence (Q8IL11 whole entry): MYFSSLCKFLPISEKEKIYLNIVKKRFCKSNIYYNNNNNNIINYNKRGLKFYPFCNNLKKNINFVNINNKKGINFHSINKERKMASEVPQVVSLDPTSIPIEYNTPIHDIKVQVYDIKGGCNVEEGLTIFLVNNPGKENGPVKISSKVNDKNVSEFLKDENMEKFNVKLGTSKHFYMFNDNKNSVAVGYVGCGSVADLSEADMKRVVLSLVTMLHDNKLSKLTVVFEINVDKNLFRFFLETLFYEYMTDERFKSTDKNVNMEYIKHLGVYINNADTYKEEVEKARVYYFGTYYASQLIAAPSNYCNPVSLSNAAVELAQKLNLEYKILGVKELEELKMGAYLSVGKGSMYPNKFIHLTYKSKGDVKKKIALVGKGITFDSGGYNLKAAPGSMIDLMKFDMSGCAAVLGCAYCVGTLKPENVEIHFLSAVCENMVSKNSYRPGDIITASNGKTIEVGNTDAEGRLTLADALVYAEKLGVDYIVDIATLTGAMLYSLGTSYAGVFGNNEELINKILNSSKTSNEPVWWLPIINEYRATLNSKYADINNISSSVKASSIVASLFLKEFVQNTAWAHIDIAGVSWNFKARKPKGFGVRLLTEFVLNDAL

[10] = target: T2, Replicative DNA helicase DnaB (Mycobacterium tuberculosis, UniProt P9WMR3); experiment: DnaB intein splicing inhibitors, dose response, biochemical, cell-free fluorescence (AID 449749); type: functional
T2 sequence (P9WMR3 whole entry): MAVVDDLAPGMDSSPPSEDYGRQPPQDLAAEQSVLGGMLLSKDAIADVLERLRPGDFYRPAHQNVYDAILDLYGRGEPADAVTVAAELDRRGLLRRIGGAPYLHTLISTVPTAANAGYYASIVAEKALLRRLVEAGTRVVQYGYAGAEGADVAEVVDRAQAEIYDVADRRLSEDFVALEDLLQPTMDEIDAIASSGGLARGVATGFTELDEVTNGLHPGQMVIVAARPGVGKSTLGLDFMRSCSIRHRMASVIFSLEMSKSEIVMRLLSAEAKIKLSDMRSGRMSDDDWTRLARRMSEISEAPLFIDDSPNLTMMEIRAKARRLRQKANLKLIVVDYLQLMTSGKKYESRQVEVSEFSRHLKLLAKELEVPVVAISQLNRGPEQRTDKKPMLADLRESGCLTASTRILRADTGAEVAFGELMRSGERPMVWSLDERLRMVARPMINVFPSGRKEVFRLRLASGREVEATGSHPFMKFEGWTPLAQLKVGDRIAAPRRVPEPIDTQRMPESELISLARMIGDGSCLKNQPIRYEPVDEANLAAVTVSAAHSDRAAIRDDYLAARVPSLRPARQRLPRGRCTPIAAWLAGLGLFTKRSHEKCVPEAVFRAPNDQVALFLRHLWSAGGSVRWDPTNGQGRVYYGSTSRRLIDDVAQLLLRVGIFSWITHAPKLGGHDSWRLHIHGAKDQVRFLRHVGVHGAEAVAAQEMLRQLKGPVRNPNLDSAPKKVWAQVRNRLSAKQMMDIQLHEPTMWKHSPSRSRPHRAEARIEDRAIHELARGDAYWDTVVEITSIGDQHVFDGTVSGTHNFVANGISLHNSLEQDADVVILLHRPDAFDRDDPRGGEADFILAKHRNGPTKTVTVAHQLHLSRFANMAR

[11] = target: T3, Protein RecA (Mycobacterium tuberculosis, UniProt P9WHJ3); experiment: Fluorescence Cell-Free Homogeneous Dose Retest to Identify Inhibitors of RecA-Intein Splicing Activity. [Related pubchem assays (depositor defined):AID2097, AID2223, AID489010, AID492950]; type: functional
T3 sequence (P9WHJ3 whole entry): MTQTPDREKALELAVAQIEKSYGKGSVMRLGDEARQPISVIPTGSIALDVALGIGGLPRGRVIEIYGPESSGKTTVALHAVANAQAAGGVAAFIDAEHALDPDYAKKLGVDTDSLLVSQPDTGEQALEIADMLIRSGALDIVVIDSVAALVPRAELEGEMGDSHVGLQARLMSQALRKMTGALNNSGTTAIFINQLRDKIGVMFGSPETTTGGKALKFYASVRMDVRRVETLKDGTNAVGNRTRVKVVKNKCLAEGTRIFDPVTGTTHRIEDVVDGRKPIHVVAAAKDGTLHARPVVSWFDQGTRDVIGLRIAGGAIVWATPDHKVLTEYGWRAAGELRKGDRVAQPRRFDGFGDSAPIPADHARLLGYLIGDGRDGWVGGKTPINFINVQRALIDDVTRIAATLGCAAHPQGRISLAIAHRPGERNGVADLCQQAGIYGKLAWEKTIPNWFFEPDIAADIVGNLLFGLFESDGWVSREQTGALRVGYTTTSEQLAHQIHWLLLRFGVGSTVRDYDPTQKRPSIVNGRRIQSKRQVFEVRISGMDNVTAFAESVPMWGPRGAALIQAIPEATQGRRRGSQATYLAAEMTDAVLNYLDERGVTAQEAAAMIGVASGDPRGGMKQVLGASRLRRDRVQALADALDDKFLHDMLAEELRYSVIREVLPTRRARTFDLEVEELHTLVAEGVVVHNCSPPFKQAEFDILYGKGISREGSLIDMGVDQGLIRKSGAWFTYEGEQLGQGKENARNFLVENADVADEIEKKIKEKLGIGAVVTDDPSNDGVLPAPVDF

[12] = A cytotoxicity screen of small molecule inhibitors of the PhoP region in Salmonella typhi identified in the primary screen. [Related pubchem assays: 1850, 1864, 1985 ]; type: functional
[13] = target: T4, Low molecular weight phosphotyrosine protein phosphatase (Homo sapiens, UniProt P24666); type: functional; details: read-out: IC50_Mean;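 further: Dose-response confirmation assay measuring inhibition of LMPTP enzyme activity by fluorescence intensity read-out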
T4 sequence (P24666 whole entry): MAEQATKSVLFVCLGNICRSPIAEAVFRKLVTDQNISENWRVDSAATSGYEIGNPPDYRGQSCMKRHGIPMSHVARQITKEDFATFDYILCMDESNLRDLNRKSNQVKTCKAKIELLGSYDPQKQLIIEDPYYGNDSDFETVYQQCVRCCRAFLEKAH

[14] = Luminescence Cell-Based Dose Confirmation HTS to Identify Activators of 5'UTR Stem-Loop Driven Alpha-Synuclein mRNA Translation in H4 Neuroglioblastoma Cells. [Related pubchem assays: 1829 (Project Summary), 1814 (Primary HTS)]; type: functional
[15] = test system: H4; experiment: Luminescence Cell-Based Dose Response HTS to Identify Activators of 5'UTR Stem-Loop Driven Prion Protein mRNA Translation in H4 Neuroglioblastoma Cells. [Related pubchem assays: 1829 (Project Summary), 1814 (Primary HTS)]; type: functional; details: Homo sapiens
[16] = Luminescence Cell-Based Dose Response HTS to Identify Activators of Luciferase Translation or Activity in H4 […] Cells. [Related pubchem assays: 1829 (Project Summary), 1814 (Primary HTS)]; type: functional
[17] = IGROV1 cell killing – plate reader, dry powder samples, PAX8 inhibitor project, dose response (AID 743043); type: functional, cell-based; details: IGROV-1
[18] = test system: SN12K1; experiment: cells; type: functional; details: Homo sapiens
[19] = test system: P388/ADR; experiment: cells; type: functional; details: Mus musculus
[20] = test system: P388; experiment: cells; type: functional; details: Mus musculus
[21] = target: Cytochrome P450 3A4 (Homo sapiens, UniProt P08684);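 further: CYP3A4 tested as one member of a cytochrome P450 panel screen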
Cytochrome P450 3A4, sequence (P08684 whole entry): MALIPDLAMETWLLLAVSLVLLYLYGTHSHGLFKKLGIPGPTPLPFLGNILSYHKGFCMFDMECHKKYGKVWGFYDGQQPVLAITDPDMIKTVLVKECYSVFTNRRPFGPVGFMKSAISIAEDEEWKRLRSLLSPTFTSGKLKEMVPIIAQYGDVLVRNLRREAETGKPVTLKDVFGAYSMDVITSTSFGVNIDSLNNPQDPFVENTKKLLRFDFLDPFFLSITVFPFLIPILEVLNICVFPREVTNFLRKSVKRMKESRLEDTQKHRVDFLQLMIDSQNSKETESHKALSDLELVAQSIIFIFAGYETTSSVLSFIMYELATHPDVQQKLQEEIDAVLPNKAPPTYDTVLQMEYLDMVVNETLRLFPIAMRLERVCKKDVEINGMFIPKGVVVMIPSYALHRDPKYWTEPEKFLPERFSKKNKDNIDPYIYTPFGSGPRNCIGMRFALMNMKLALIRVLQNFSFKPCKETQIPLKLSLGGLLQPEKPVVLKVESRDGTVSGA

C[C@@H]1CN([C@H](C)CO)C(=O)c2cc(NS(=O)(=O)c3ccccc3)ccc2O[C@@H](C)CCCCO[C@@H]1CN(C)CC1CCCCC1
AC50 [1]: 68 µM (active) | AC50 [2]: 19.6 µM (active) | AC50 [3]: 53.9 µM (active)

C(=NOCCc1ccccc1)c1cccnc1
IC50 [4]: > 29.8 µM (inactive) | EC50 [5]: > 29.8 µM (inactive)

C[C@H](CO)N1C[C@H](C)[C@H](CN(C)C(=O)Nc2ccc(C(F)(F)F)cc2)Oc2c(NC(=O)Nc3ccc(C(F)(F)F)cc3)cccc2C1=O
AC50 [6]: 6.56 µM (active)

C/C(=N/NC(=O)Cc1c(C)n[nH]c1O)c1ccc(O)cc1
AC50 [7]: 1.49 µM (active) | IC50 [8]: 31.4 µM (active) | IC50 [9]: 4.09 µM (active)

O=C(Cc1cc(O)n[nH]1)N/N=C/c1c(Cl)cccc1Cl
AC50 [10]: 2.66 µM (active) and 7.7 µM (active) | EC50 [11]: 6.26 µM (inconclusive) and 1.51 µM (active) | IC50 [9]: 49.9 µM (active)

O=C1CC(=O)C(n2cncn2)C(c2ccc(Cl)cc2Cl)C1 (stereo unspecified)
IC50 [9]: 17.9 µM (active)

Cc1ccc(-n2c(C)cc(C(=O)NS(=O)(=O)c3ccc(C)cc3)c2C)cc1
IC50 [9]: 25.4 µM (active)

COc1ccc(S(=O)(=O)Nc2ccc3c(c2)CC(=O)N([C@@H](C)CO)C[C@@H](C)[C@@H](CN(C)Cc2ccc(C(F)(F)F)cc2)O3)cc1
AC50 [6]: 5.93 µM (active)

COc1ccc(NS(=O)(=O)c2cccc(NC(=O)c3ccccn3)c2)cc1
EC50 [12]: > 50 µM (active)

CCn1cc(C(=O)O)c(=O)c2cnc(N3CCN(C(=S)Nc4ccccc4Cl)CC3)nc21
IC50 [13]: 35.9 µM (inactive) | EC50 [14]: > 120 µM (not active) | EC50 [15]: > 120 µM (not active) | EC50 [16]: > 120 µM (not active)

C[C@@H]1CCCCO[C@@H](CN(C)S(=O)(=O)c2ccc(Cl)cc2)[C@H](C)CN([C@H](C)CO)C(=O)c2cc(NS(=O)(=O)c3ccc(F)cc3)ccc2O1
AC50 [2]: 3.41 µM (active) | AC50 [17]: 57.7 µM (active)

C=Cc1cc(OC)c2c(c1)c(=O)oc1c2cc(OC)c2c(O)ccc(C3OC(C)C(O)C(C)(O)C3O)c21 (stereo unspecified)
GI50 [18]: 0.0269 µM (active) | AC50 [2]: < 0.26 µM (active) | GI50 [19]: 0.0225 µM (active) | GI50 [20]: 0.0225 µM (active)

Cc1cccc(CN2C3=NCCCN3c3ccccc32)c1
EC50 [12]: > 50 µM (active)

C[C@H](CO)N1C[C@H](C)[C@H](CN(C)Cc2ccc(C(=O)Nc3ccccc3N)cc2)Oc2c(cccc2N(C)C)C1=O
AC50 [6]: 3.67 µM (active)

Cc1cc(Cl)nc(Cl)c1C(=O)NCCc1ccccc1
IC50 [4]: > 29.9 µM (inactive) | EC50 [5]: > 29.9 µM (inactive)

C[C@@H]1CN([C@H](C)CO)C(=O)Cc2cc(NC(=O)NC3CCCCC3)ccc2O[C@H]1CN(C)Cc1ccc(-c2ccccc2)cc1
AC50 [6]: 4.51 µM (active)

O=C(O)C1CC=CCC1C(=O)NCCc1ccccc1 (stereo unspecified)
IC50 [4]: > 29.9 µM (inactive) | EC50 [5]: > 29.9 µM (inactive)

CC(=O)c1cccc(NC(=O)CCC2CCCC2)c1
AC50 [21]: 28.2 µM (inconclusive) | EC50 [12]: > 50 µM (active)

COc1ccc(CNC(=O)C2CC(C)=C(C)CC2C(=O)O)cc1 (stereo unspecified)
IC50 [9]: 43.7 µM (active)

— ChEMBL document CHEMBL1201862, “PubChem BioAssay data set” (2004)
